Assay results as given in PubChem BioAssay AID2060509 (Molecular Pharmacology Branch, DTP, NCI, 2025).
“And” between values parts separate entries of the source, which are not always exact repeats. Identical values can stand only once.

System: 485176-168-R4-J1-PDC spheroids with HUVEC/MSC, viability
Test: Anticancer human tumor 485176-168-R4-J1-PDC patient-derived pancreatic adenocarcinoma cell line growth inhibition [GQUAD]
Conditions: for viability, T/C: stronger effect = lower value
Description: DNA G-quadruplex Stabilizer Agents in Combinations in Complex Spheroids
A high-throughput screen of multi-cell type tumor spheroids was designed to identify active combinations of DNA G-quadruplex stabilizer agents and targeted small molecules. Complex spheroids include a stromal component modeled by human endothelial cells (HUVEC) and fibroblasts modeled by human mesenchymal stem cells (MSCs). The concentration ranges selected for each drug and investigational agent were based upon clinically achievable concentrations if the clinical Cmax of the agent was known.
Compounds. The drugs and investigational agents: pidnarulex (CX-5461; NSC782164), APTO-253 (NSC789042), BRACO-19 (NSC847499), peposertib (NSC802822), ceralasertib (NSC780249), elimusertib (NSC800525), camonsertib (NSC841442), AZD-1390 (NSC803789), olaparib (NSC753686), talazoparib (NSC767125), ART-558 (NSC835418), sotorasib (NSC818433), MRTX-1133 (NSC836407), SN-38 (NSC673596), topotecan (NSC609699), etoposide (NSC141540), doxorubicin (NSC123127), gemcitabine (NSC613327), 5-fluorouracil (NSC19893), paclitaxel (NSC125973), vemurafenib (NSC761431), panobinostat (NSC761190), R-306465 (JNJ-16241199; NSC773264), adavosertib (NSC754352), TP-3654 (NSC805149), carboplatin (NSC241240), KSQ-4279 (NSC840948), and staurosporine (NSC755774) were obtained from the National Cancer Institute (NCI) Developmental Therapeutics Program Chemical Repository (34). The FDA-approved anticancer drug set is available from the NCI Developmental Therapeutics Program. […] The stock solutions were prepared in dimethyl sulfoxide (DMSO, Sigma-Aldrich, St. Louis, MO, cat. D2650) at 800-fold the tested concentration and stored at -70 degrees C prior to their use. All drugs and investigational agents were tested over a range starting from a high concentration at or near the clinical Cmax and decreasing in half-log increments. If the clinical Cmax for an agent had not been determined, the highest concentration tested was 10 microM.
2.3 Cell Culture. All cells were maintained in an incubator at 37 degrees C and 5% CO2 with 95% humidity. The PDC lines were cultured according to standard operating procedures established by the NCI PDMR. All PDCs were thawed and cultured in Matrigel-coated flasks prepared with a working solution of 1X Ham's F-12 nutrient mix, without supplementation (Invitrogen, cat. 11765054), 100 U/mL penicillin-streptomycin (Invitrogen, cat. 15140122), and 2.5% Matrigel (Corning Inc., cat. 354248) for the first three passages. The 857933-349-R-J2-PDC line was cultured in 6C/Colon 1B media, which includes advanced DMEM/F-12 (Thermo Fisher Scientific, cat. 12634028), 10 mM HEPES (Thermo Fisher Scientific, cat. 15630080), 1X GlutaMAX supplement (Thermo Fisher Scientific, cat. 35050061), 0.1 mg/mL primocin (InvivoGen, cat. ant-pm-2), 10% defined fetal bovine serum, heat inactivated (HyClone Laboratories Inc., cat. SH30070.03HI), 50% L-WRN conditioned media (ATCC, cat. CRL-3276), 1.25 mM N-Acetyl-L-cysteine (Sigma-Aldrich, cat. A9165), 10 mM nicotinamide (Sigma-Aldrich, cat. N0636), 1X B-27 supplement (Thermo Fisher Scientific, cat. 17504044), 1X N-2 supplement (Thermo Fisher Scientific, cat. 17502048), 10 microM Y-27632 dihydrochloride (Tocris Bioscience, cat. 1254), and 50 ng/mL human EGF recombinant protein (Thermo Fisher Scientific, cat. PHG0311). The 485176-168-R4-J1-PDC line was cultured in Panc media, which includes all 6C/Colon 1B media components plus 100 ng/mL human FGF-10 (Thermo Fisher Scientific, cat. 100-26), 500 nM SB-431542 (Selleckchem, cat. S1067), and gastrin (Tocris, cat. 3006).
[…]
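Further: spheroids exposed to compounds for seven days before readout.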
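Wherever viability, T/C is given: percent viability relative to DMSO vehicle control wells as 100%.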

Compound: CC(C)n1c(=O)n(C)c2cnc3cc(F)c(-c4ccc(OCCCN5CCCCC5)nc4)cc3c21 + Cc1[nH]c2ccc(F)cc2c1-c1nc2c3cccnc3c3ncccc3c2[nH]1
- IC50 (curve of first compound, second compound 0.0316 µM): > 10 µM
- IC50 (curve of first compound, second compound 0.1 µM): > 10 µM
- IC50 (curve of first compound, second compound 0.316 µM): > 10 µM
- IC50 (curve of first compound, second compound 1 µM): > 10 µM
- IC50 (curve of first compound, second compound 3.16 µM): > 10 µM
- IC50 (curve of first compound, second compound 10 µM): > 10 µM
- viability, T/C (second compound 0.0316 µM, first compound 0.0316 µM): 106%
- viability, T/C (second compound 0.0316 µM, first compound 0.1 µM): 78.3%
- viability, T/C (second compound 0.0316 µM, first compound 0.316 µM): 89.2%
- viability, T/C (second compound 0.0316 µM, first compound 1 µM): 87.8%
- viability, T/C (second compound 0.0316 µM, first compound 3.16 µM): 85.1%
- viability, T/C (second compound 0.0316 µM, first compound 10 µM): 71.2%
- viability, T/C (second compound 0.1 µM, first compound 0.0316 µM): 82.6%
- viability, T/C (second compound 0.1 µM, first compound 0.1 µM): 103%
- viability, T/C (second compound 0.1 µM, first compound 0.316 µM): 77.7%
- viability, T/C (second compound 0.1 µM, first compound 1 µM): 95.6%
- viability, T/C (second compound 0.1 µM, first compound 3.16 µM): 93.8%
- viability, T/C (second compound 0.1 µM, first compound 10 µM): 99.2%
- viability, T/C (second compound 0.316 µM, first compound 0.0316 µM): 92%
- viability, T/C (second compound 0.316 µM, first compound 0.1 µM): 82.8%
- viability, T/C (second compound 0.316 µM, first compound 0.316 µM): 91.1%
- viability, T/C (second compound 0.316 µM, first compound 1 µM): 88.7%
- viability, T/C (second compound 0.316 µM, first compound 3.16 µM): 80.4%
- viability, T/C (second compound 0.316 µM, first compound 10 µM): 85.2%
- viability, T/C (second compound 1 µM, first compound 0.0316 µM): 80.8%
- viability, T/C (second compound 1 µM, first compound 0.1 µM): 89.6%
- viability, T/C (second compound 1 µM, first compound 0.316 µM): 81.7%
- viability, T/C (second compound 1 µM, first compound 1 µM): 84.3%
- viability, T/C (second compound 1 µM, first compound 3.16 µM): 99.3%
- viability, T/C (second compound 1 µM, first compound 10 µM): 77.2%
- viability, T/C (second compound 3.16 µM, first compound 0.0316 µM): 89.2%
- viability, T/C (second compound 3.16 µM, first compound 0.1 µM): 82.4%
- viability, T/C (second compound 3.16 µM, first compound 0.316 µM): 84.4%
- viability, T/C (second compound 3.16 µM, first compound 1 µM): 85%
- viability, T/C (second compound 3.16 µM, first compound 3.16 µM): 76.8%
- viability, T/C (second compound 3.16 µM, first compound 10 µM): 64%
- viability, T/C (second compound 10 µM, first compound 0.0316 µM): 79.1%
- viability, T/C (second compound 10 µM, first compound 0.1 µM): 78.8%
- viability, T/C (second compound 10 µM, first compound 0.316 µM): 87.4%
- viability, T/C (second compound 10 µM, first compound 1 µM): 76.5%
- viability, T/C (second compound 10 µM, first compound 3.16 µM): 86%
- viability, T/C (second compound 10 µM, first compound 10 µM): 64.6%

Compound: COc1cccc2c1C(=O)c1c(O)c3c(c(O)c1C2=O)CC(O)(C(=O)CO)CC3OC1CC(N)C(O)C(C)O1 (stereo unspecified)
- viability, T/C (compound 0.0316 µM): 94.5% and 91.5% and 81.9%
- viability, T/C (compound 0.1 µM): 59.7% and 68.6% and 56.4%
- viability, T/C (compound 0.316 µM): 51.7% and 52.9% and 48.3%
- viability, T/C (compound 1 µM): 16% and 16.9% and 15.1%
- viability, T/C (compound 3.16 µM): 4.15% and 1.93% and 4.74%
- viability, T/C (compound 10 µM): 0.3% and 0.31% and 0.43%
- IC50 (curve of compound): 0.215 µM and 0.283 µM and 0.193 µM

Compound: Cn1ncnc1[C@H]1c2n[nH]c(=O)c3cc(F)cc(c23)N[C@@H]1c1ccc(F)cc1
- viability, T/C (compound 0.000999 µM): 99.2% (2×) and 86.5%
- viability, T/C (compound 0.00316 µM): 95.2% and 94% and 85.8%
- viability, T/C (compound 0.00999 µM): 96.4% and 108% and 91.5%
- viability, T/C (compound 0.0316 µM): 98.8% and 101% and 88.8%
- viability, T/C (compound 0.0999 µM): 91.2% and 91.7% and 89.7%
- viability, T/C (compound 0.316 µM): 75.9% and 98.5% and 85.9%
- IC50 (curve of compound): > 0.316 µM
